Where two headings read alike, the source gives them in different places.
How the values were obtained:
[1] = Acute toxicity, single intraperitoneal injection, probit analysis (LD50); format: in vivo, Mäusen; conditions: mice, i.p.
Description: Ihre akute Toxizität wurde an Mäusen (einmalige intraperitoneale Injektion) nach der Methode der Probit-Analyse nach Zichtfield, Wilcoxon, t949 untersucht. In Tabelle 2 sind die Parameter der akuten Toxizität (LDso) angegeben, die eine mäßige Toxizität der erfindungsgemäßen Verbindungen belegen.

[2] = Side effects and CNS/behaviour: tremor (TD50), sedative and m-cholinomimetic effects; format: in vivo; conditions: for TD50 (Tremor) / TD50: toxic dose causing tremor in 50 % of the animals
Description: Von Interesse ist der Einfluß der erfindungsgemäßen Verbindungen auf das ZNS und das Verhalten der Tiere.

[3] = tested on: durch Skopolamin hervorgerufene Amnesie; assay: Dark avoidance assay (passive avoidance), scopolamine-induced amnesia; format: in vivo, Mäusen; conditions: for Einfluß auf das Gedächtnis: Zahl der Tiere in %, bei denen die Skopolaminwirkung aufgehoben wurde: mice, compound s.c. 5 min before learning, Skopolamin i.p. 30 min before
Procedure: Die Mäuse wurden dabei in den hellen Abschnitt der Kammer gegeben, wonach die Latenzzeit für den Übertritt in die dunkle Kammer, in der die Tiere einem Stromschlag von 0,5 mA ausgesetzt waren, registriert wurde. Danach erhöhte sich die Latenzzeit für den Übertritt in den dunklen Abschnitt und verringerte sich die Aufenthaltsdauer. 30 Minuten vor dem Versuch wurden den Mäusen i.p. […] Gedächtnisstörungen hervorrufendes Skopolamin als Cholinblocker injiziert. Die erfindungsgemäßen Verbindungen wurden s.c. 5 Minuten vor dem Lernvorgang injiziert. Das Skopolamin verkürzt die Latenzzeit für den Übertritt in die dunkle Kammer, die erfindungsgemäßen Verbindungen stellen jedoch die Latenzzeitwerte wie bei der Kontrollgruppe wieder her oder bedingen ein geringfügiges Überschreiten dieser Werte (siehe Tabelle 2). Gleichzeitig wird die Aufenthaltsdauer der Tiere im dunklen Abschnitt der Kammer auf 36 bis 45 Hundertstel des Ausgangswerts verringert.

[4] = tested on: Nerven-Muskel-Präparat von Mäusen (n.peroneus-m.extensor digitorum longus); assay: Neuromuscular transmission in isolated nerve-muscle preparation (EPP, minEPP); conditions: for Stimulierung der Nerven-Muskelübertragung, in % der Amplitude: EPP: EPP = Endplattenpotential
Description: Der Einfluß der Stoffe auf die Nerven-Muskei-Übertragung wurde am isolierten Nerven-Muskel-Präparat von Mäusen (n.peroneus-m.extensor digitorum longus) (s. Bhattacharyya B. et al. "Neuromuscular blocking action of two hemicholinium-3 analogs" Europ. J. Pharmac. 146, 155-165 /1988/) untersucht, das von Lilly-Lösung perfundiert wurde, durch die man ein Gemisch von 02 und C02 leitete. […] Das Endplattenpotential (EPP) und das Endplattenminiaturpotential (minEPP) wurden mit Hilfe eines Magnetografen aufgezeichnet und danach mit dem Computer ausgewertet. Ermittelt wurden die Frequenz (f), die Amplitude (A) und die Dauer (t) der minEPP und der EPP (s. Tabelle 2).

[5] = tested on: isolierten Präparaten des rechten Vorhofs von Kaninchen; assay: Antiarrhythmic effect on isolated right atrium preparations (microelectrodes: AP duration, refractory period R, e/R); conditions: isolated right atrium of rabbit; for Antiarrhythmische Wirkung: Verlängerung d. Refraktärzeit (R), in %: microelectrodes
Description: (§1) Die antiarrhythmische Wirkung der erfindungsgemäßen Verbindungen wurde in zwei Versuchsserien untersucht, und zwar an isolierten Präparaten des rechten Vorhofs von Kaninchen und mit Hilfe des Calciumchlorid-Arrhythmie-Modells an Ratten. In den Versuchen an den isolierten Präparaten des rechten Vorhofs wurden mit Hilfe von Mikroelektroden die Dauer des AP sowie der Refraktärzeit (R) und die maximale Hemmung (e) und der Parameter (e/R) untersucht, durch den die Anfälligkeit des Myokards gegenüber der Entstehung von Arrhythmien gekennzeichnet wird. In den Versuchen an Ratten wurden diesen Calciumchlorid in einer Dosierung von 250 mg/kg injiziert. Registriert wurden das Vorliegen von Kammerflimmern und die Lebensdauer der Tiere. Sämtliche erfindungsgemäßen Verbindungen üben eine mäßige antiarrhythmische Wirkung aus. Sie steigern die Refraktärzeit des Muskels und des AP um 35 bis 145 % und verringern gleichzeitig die Anfälligkeit des Myokards, ausgedrückt durch den Parameter e/R um 10 bis 80 % (s. Tabelle 4). In bezug auf diese Wirkung waren die Salze der bicyclischen Basen wirksamer als Amyridin. Bezüglich des Vermögens, die Tiere vor Kammerflimmern und vor dem Tod nach Verabreichung von 250 mg/kg Calciumchlorid zu schützen, waren diese Verbindungen ebenfalls am stärksten wirksam. Bei Verwendung des Calciumchlorid-Arrhythmie-Modells waren viele erfindungsgemäßen Verbindungen stärker wirksam als das klassische Antiarrhythmikum Chinidin (s. M.D. Ma s kovskij, Lekarstvennye sredstva, Bd. 1, S. 401, Moskau, Medicina, 1984).

[6] = tested on: Calciumchlorid-Arrhythmie-Modells; assay: Calcium chloride arrhythmia model (250 mg/kg): ventricular fibrillation, survival; format: in vivo, Ratten; conditions: rats, calcium chloride 250 mg/kg
Description: as §1

Zahl der Krämpfe = assay: Writhing test (intraperitoneal acetic acid); format: in vivo, Mäusen; conditions: male mice
Description: Die analgetische Wirkung der erfindungsgemäßen Verbindungen wurde an männlichen Mäusen anhand des "Krampf"-Tests (Writhing-Tests) unter intraperitonealer Injizierung von Essigsäure und des Hot-plate-Tests untersucht. Im ersten Falle wurde die analgetische Wirkung der Verbindungen anhand der prozentualen Verringerung der Zahl der Krämpfe ermittelt. Beim zweiten Test wurde die Schwelle der Schmerzempfindlichkeit (Ablecken der Pfoten) bestimmt. Die stärkste analgetische Wirkung der erfindungsgemäßen Verbindungen zeigte sich beim "Krampf"-Test. Dabei übertrafen die Salze der bicyclischen Basen Amyridin, aber nicht alle erfindungsgemäßen Verbindungen waren schwächer als Morphin (s. Tabelle 4).

Orientierungsaktivität = assay: Influence on orientation activity; format: in vivo, Mäusen; conditions: mice
Description: Von Interesse ist der Einfluß der erfindungsgemäßen Verbindungen auf das ZNS und das Verhalten der Tiere. Alle Verbindungen zeigen eine Kombination von stimulierenden und sedativen Eigenschaften und bei höheren Dosen auch eine m-cholinomimetische Wirkung, wobei Tremor, Speichelfluß und Diarrhoe ausgelöst werden.

Wirkung von Hexenal = assay: Influence on the effect of Hexenal; format: in vivo, Mäusen; conditions: mice
[7] = biological target: T1, Acetylcholinesterase menschlicher Erythrozyten (Homo sapiens, UniProt P22303); assay: Acetylcholinesterase inhibition, spectrophotometric; format: biochemical
T1 construct: Acetylcholin-esteraseinhi-bierung bei menschlichen Erythrozyten; from tissue; host or cells: human erythrocytes
Description: Untersucht wurden die Wirkmechanismen der erfindungsgemäßen Verbindungen: • 1. Die Wirkung auf Acetylcholinesterase menschlicher Erythrozyten auf spektrofotometrischem Wege. • 2.

[8] = ED50 = dose blocking the effect of Skopolamin in 50 % of the animals (passive avoidance, mice)
[9] = Acetylcholinesteraseinhibierung bei menschlichen Erythrozyten IK, (Mol), human erythrocyte enzyme

T1 sequence (P22303 other isoform, or with tags, fused parts or gaps): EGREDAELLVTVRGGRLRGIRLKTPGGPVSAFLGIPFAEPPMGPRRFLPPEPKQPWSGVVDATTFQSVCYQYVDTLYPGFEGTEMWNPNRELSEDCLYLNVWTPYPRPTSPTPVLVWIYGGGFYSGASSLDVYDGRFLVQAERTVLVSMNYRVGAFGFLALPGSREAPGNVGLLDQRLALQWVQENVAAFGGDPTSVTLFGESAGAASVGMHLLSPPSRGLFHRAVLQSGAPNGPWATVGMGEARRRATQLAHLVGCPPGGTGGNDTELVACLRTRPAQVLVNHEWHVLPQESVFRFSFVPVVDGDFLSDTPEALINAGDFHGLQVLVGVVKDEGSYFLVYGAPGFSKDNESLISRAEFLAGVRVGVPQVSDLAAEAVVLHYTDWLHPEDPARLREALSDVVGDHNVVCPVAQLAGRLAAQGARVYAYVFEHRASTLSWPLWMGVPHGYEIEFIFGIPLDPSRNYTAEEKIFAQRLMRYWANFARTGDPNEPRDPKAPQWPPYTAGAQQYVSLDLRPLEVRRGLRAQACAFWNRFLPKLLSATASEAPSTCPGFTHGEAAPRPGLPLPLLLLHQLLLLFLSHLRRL

Row | Compound | LD50 [1] [mg/kg] | Verhältnis TD50 zu ED50 [2, 8] | TD50 (Tremor) [2] | Einfluß auf das Gedächtnis: Zahl der Tiere in %, bei denen die Skopolaminwirkung aufgehoben wurde [3] [%] | Stimulierung der Nerven-Muskelübertragung, in % der Amplitude: EPP [4] [%] | Stimulierung der Nerven-Muskelübertragung, in % der Amplitude: minEPP [4] [%] | Antiarrhythmische Wirkung: Verlängerung d. Refraktärzeit (R), in % [5] [%] | Antiarrhythmische Wirkung: Abnahme d. Parameters θ/R, in % ([5]; parameter marks susceptibility of the myocardium to arrhythmia) [%] | Antiarrhythmische Wirkung: Verlängerung d. Lebensdauer von Ratten an Hand des CaCl2-Arrhythmie-Modells, in % [6] [%] | Analgetische Wirkung: Abnahme d. Zahl der "Krämpfe" bei Mäusen, in % (Zahl der Krämpfe) [%] | Änderung der Orientierungsaktivität, in % (Orientierungsaktivität) [%] | Änderung der Dauer der Seitenlage, in %: Hexenal 60 mg/kg (Wirkung von Hexenal) | Ki [7, 9] [µM] | TD50 ([2]; in vivo) [mg/kg] | LD50 ([1]; mouse, in vivo, ip, read-out: LD50) [mg/kg] | selectivity ratio ([2]; in vivo, ED50 = dose blocking the effect of Skopolamin in 50 % of the animals (passive avoidance, mice), read-out: Verhältnis TD50 zu ED50) | antiamnestische Wirkung ([3]; in words, compared with Amyridin) | Ki ([7]; read-out: Acetylcholinesteraseinhibierung bei menschlichen Erythrozyten IK, (Mol), human erythrocyte enzyme) [µM]
1 | 4-Amino-2,3-dimethyl-6,7-dihydro-5H-1-pyrindinsalicylat [Verbindung 8] | 17 | 6 | 8 mg/kg | 70 | 40 | 75 | 100 | 58 | 190 | 70 | 0 | 0% |  |  |  |  |  | 
2 | Cc1nc2c(c(N)c1C)CCC2 [Verbindung 2] | 15 | 12,5 | 5 mg/kg | 75 | 45 | 85 | 130 |  | 160 | 70 | -15 | +35% | 0.048 |  |  |  |  | 
3 | Cc1nc2c(c(N)c1C)CCC2 [Verbindung 3] | 17 | 20 | 7 mg/kg | 80 | 55 | 110 | 115 |  | 190 | 90 | -8 | 0% | 0.18 |  |  |  |  | 
4 | Cc1nc2c(c(N)c1C)CCC2 [Verbindung 4] | 15 | 11 | 5,5 mg/kg | 70 | 40 | 85 | 90 |  | 180 | 80 | 0 | 0% | 0.24 |  |  |  |  | 
5 | Cc1nc2c(c(N)c1C)CCC2 [Verbindung 5] | 25 | 13 | 9 mg/kg | 60 | 40 | 90 | 110 |  | 130 | 90 | -10 | 0% | 0.66 |  |  |  |  | 
6 | Cc1nc2c(c(N)c1C)CCC2 [Verbindung 6] | 35 | 10 |  | 60 | 35 | 80 | 100 |  | 130 | 70 | -20 | +20% | 0.4 | 10 |  |  |  | 
7 | Cc1nc2c(c(N)c1C)CCC2 [Verbindung 7] | 20 | 9 | 9 mg/kg | 80 | 52 | 95 | 110 |  | 150 | 60 | -25 | +32% | 0.366 |  |  |  |  | 
8 | Cc1nc2c(c(N)c1C)CCC2 [Verbindung 17] | 24 | 7,1 | 10 mg/kg | 72 | 43 | 75 |  |  |  |  |  |  | 0.39 |  |  |  |  | 
9 | Cc1nc2c(c(N)c1C)CCC2 [Verbindung 18] | 16 | 6 | 9 mg/kg | 70 | 45 | 80 |  |  |  |  |  |  | 0.145 |  |  |  |  | 
10 | CCc1c(C)nc2c(c1N)CCC2 [Verbindung 22] | 32 | 4 | 12 mg/kg | 70 | 25 | 60 |  |  |  |  |  |  |  |  |  |  |  | 
11 | Cc1nc2c(c(N)c1-c1ccccc1)CCC2 [Verbindung 32] |  |  |  | 50 | 20 | 45 |  |  |  |  |  |  |  | 10 | 18 | 2.6 | ausgenommen | 50

— EP0326134A1, “4-Amino-2,3-disubstituted-6,7-dihydro-5H-1-pyridine derivatives, process for their preparation and medicaments containing them” (NAUCHNO-ISSLEDOVATELSKY INSTITUT TEKHNOLOGII I BEZOPASNOSTI …, priority 1988, dated 1989)
